Measured values reported in publication PMC8778818, “Synthesis, Structural Characterization and Anticancer Activity of New 5-Trifluoromethyl-2-thioxo-thiazolo[4,5-d]pyrimidine Derivatives” (Pharmaceuticals, 2022).

Assays:
Format in all cases: cell-based, human
MDA-MB-468 = experiment: NCI-60 screen, Breast Cancer MDA-MB-468; conditions: for Growth of Cells (%): MDA-MB-468, 10^−5 M one dose
Method: The search for the cytotoxic activity of new derivatives usually starts with in vitro cell-based screening. Four compounds 2b (NSC D-745983/1), 3b (NSC D-766111/1), 4b (NSC D-785591/1) and 4c (NSC D-771706/1), selected by the National Cancer Institute were tested in the anticancer screen for a panel of approximately 60 human disease-oriented tumor cell lines, organized into subpanels derived from nine human cancer types—leukemia, melanoma, and cancers of the lung, colon, brain, breast, ovary, prostate, and kidney. They were initially tested at only one concentration of 10 µM (10^−5 M) for each cell line, which were inoculated and preincubated on a microtiter plate for […]. The results of the one-dose anticancer assay for the tested new compounds are reported as the percentage of the treated cell growth in comparison with untreated no-drug control. This allows for detection of the growth inhibition—values 0–100 and cytotoxicity; negative numbers mean cell death.
Antitumor activity in five dose testing (10^−4−10^−8 M) is expressed by three different dose–response parameters for each of the 60 human tumor cell lines. The GI50 value (molar concentration causing a half-growth inhibition), TGI (molar concentration required for total growth inhibition), which signifies the cytostatic effect, and LC50 (molar concentration of the compound required for 50% cell death). LC50 signifies the cytotoxic effect. […] Nevertheless, the selectivity for GI50 can be seen for several cell lines within subpanel leukemia (SR, log GI50 −6.36) and non-small cell lung cancer (NCI-H522, log GI50 −6.69).
The antitumor screening (NCI-60) was performed at the National Cancer Institute, Bethesda, USA. A total panel of approximately 60 human tumor cell lines derived from nine different cancer types (leukemia, non-small cell lung, colon, brain, melanoma, ovarian, renal, prostate and breast) formed the basis of this in vitro test. The origins and processing of the cell lines used in the study were described previously. First, the compounds were evaluated in a primary anticancer assay at 10^−5 M. Results for each tested compound are reported as the percent of growth of the treated cells. […] The human tumor cell lines of the cancer screening panel were grown in an RMPI 1640 medium containing 5% fetal bovine serum and 2 mM of L-glutamine. Each cell line was inoculated and preincubated at 37 °C, 5% CO2, 95% air and 100% relative humidity for 24 h, before the addition of the test compound into 96-well microtiter plates in 100 µL at plating densities ranging from 5000 to 40,000 cells/well. The density of inoculum depends on the type of tumor cell and its growth characteristics. The screened compounds were solubilized in dimethyl sulfoxide at 400-fold the desired final concentration and stored frozen. At the time of the test agents’ addition, an aliquot of frozen concentrate was thawed and diluted to twice the desired final concentration with complete medium containing 50 µg/mL gentamicin. Next, the test compounds were evaluated at the four additional 10-fold dilutions to reach the final concentrations plus control. Aliquots of 100 µL of the different dilutions (100, 10, 1, […] µM/mL) of the tested compounds were added to microtiter wells, and the culture was incubated for 48 h under the same conditions. Cell were fixed in situ by the addition of 50 µL of cold 50% trichloroacetic acid and incubated for 60 min at 4 °C. The supernatant was discarded; plates were washed five times with water and air-dried. Sulforhodamine B at 0.4% in 1% acetic acid, 100 µL, was added to each well, then plates were incubated for 10 min at room temperature. Unbound dye was removed by washing five times with 1% acetic acid and air dried. The protein-bound stain was solubilized with a […] trizma base and the absorbance was read on an automated plate reader. A wavelength of 515 nm was used to read optical densities. […]

NCI-H23 = experiment: NCI-60 screen, Non-Small Cell Lung Cancer NCI-H23; conditions: for Growth of Cells (%): NCI-H23, 10^−5 M one dose
A375 = experiment: MTT cell viability assay, A375; conditions: Homo sapiens; for IC50: A-375, 72 h, A375, MTT, mean ± SD
Method: Twelve compounds (2a-e, 3a-d and 4a-c) at a concentration range of 50–5000 μM were tested for their antiproliferative potential against four human cancer cell lines (A375—melanotic melanoma, C32—amelanotic melanoma, DU145—prostate cancer androgen-independent, MCF-7/WT—breast adenocarcinoma) and two normal cell lines: Chinese Hamster Ovary (CHO-K1) and immortalized human keratinocytes from histologically normal skin (HaCaT).
To determine the antiproliferative activity of newly synthesized compounds, the following cell lines were used: human melanotic melanoma cell line (A375), human amelanotic melanoma cell line (C32), human breast adenocarcinoma cell line (MCF-7/WT), human prostate cancer androgen-independent (DU145) and two normal cell lines: hamster ovarian (CHO-K1) and immortalized human keratinocytes from histologically normal skin (HaCaT). The cells were obtained from the cell line bank of the Department of Molecular and Cellular Biology, Wroclaw Medical University. A375, C32, MCF-7/WT, DU145 and HaCaT cells were grown in a monolayer cultured in Dulbecco’s Modified Eagle’s Medium (DMEM, Sigma-Aldrich, Poznań, Poland), supplemented with 10% of fetal bovine serum (FBS, Gibco, Paisley, UK) and 1% of antibiotics (penicillin/streptomycin, Sigma-Aldrich) and CHO-K1 were grown in HAM’s F-12 medium (Sigma-Aldrich), supplemented with 10% fetal bovine serum (FBS, Gibco) and 1% of antibiotics (penicillin/streptomycin, Sigma-Aldrich). Cell lines were cultured in the polystyrene flasks 25 or 75 cm^2 (Thermo Fisher Scientific, Waltham, MA, USA), which were stored in 37 °C and 5% CO2 in a humidified 95% atmosphere (SteriCult, Thermo Scientific, Alab). The cell medium was exchanged twice a week. The exponentially growing cells were used throughout the experiments. The cells were rinsed with phosphate-buffered saline (PBS, Sigma-Aldrich) and trypsinized by Trypsin-EDTA 0.25% solution (Sigma-Aldrich).
The influence of the compounds was performed in a monolayer culture on cancer and normal cells. Compounds were initially dissolved in DMSO; further dilutions of the compound were performed in Dulbecco’s Modified Eagle’s Medium supplemented with 10% FBS. Compounds were tested in a 50–5000 µM concentration range. In the in vitro experiments, the concentrations of DMSO in the final solution of the compounds were used 0.05%; 0.1%; 0.5%; 1%, respectively.
Cell viability was determined using the MTT colorimetric assay. All cell lines were seeded into 96-well plates to a density of 3 × 10^4 cells/well. After 24 h, the culture supernatants were removed and appropriate dilutions of compounds in the culture medium (200 µL/well) were added to the cells’ monolayer cultures and incubated for an additional 72 h. After 72 h of exposition to the compounds and the removal of the culture medium, cell viability was determined by reducing the yellow dye 3-(4,5-dimethyl-2-thiazol)-2,5-diphenyl-2H-tetrazolium bromide (MTT assay, Sigma Saint Louis, MO, USA; In Vitro Toxicology Assay) to a blue formazan product. The absorbance of the resulting solutions in three duplicate experiments was measured at the wavelength of 560 nm in a microplate reader (EnSpire, Perkin Elmer, Kraków, Poland). MTT assay is a colorimetric method that estimates the rate of metabolism in viable cells. Absorbance is directly proportional to the number of viable cells. All the experiments were performed three times and the mean absorbance values were calculated. The methodology for the evaluation of the growth of human cancer and normal cells was described previously. The cell viability in each group was expressed as a percentage of control (untreated) cells.

| Structure (SMILES) | Growth of Cells (%) (MDA-MB-468) | Growth of Cells (%) (NCI-H23) | IC50 (A375) | GI50 (MDA-MB-468; Homo sapiens, MDA-MB-468, five doses 10^−4–10^−8 M) | CC50 (MDA-MB-468; Homo sapiens, MDA-MB-468, five doses 10^−4–10^−8 M, read-out: log LC50 (the source's name) (converted)) | log TGI (MDA-MB-468; MDA-MB-468, five doses 10^−4–10^−8 M) | GI50 (NCI-H23; Homo sapiens, NCI-H23, five doses 10^−4–10^−8 M) | CC50 (NCI-H23; Homo sapiens, NCI-H23, five doses 10^−4–10^−8 M, read-out: log LC50 (the source's name) (converted)) | log TGI (NCI-H23; NCI-H23, five doses 10^−4–10^−8 M) | viability at 50 µM (A375; A-375, A375 melanotic melanoma, 50 µM, 72 h) |
| --- | --- | --- | --- | --- | --- | --- | --- | --- | --- | --- |
| O=c1[nH]c(C(F)(F)F)nc2c1sc(=S)n2-c1ccccc1 [Compound 2b, 3-phenyl-2-thioxo-5-(trifluoromethyl)-2,3-dihydro[1, 3]thiazolo[4,5-d]pyrimidin-7(6H)-one] | 91.37% | 112.30% | 367 ± 15.1 µM | – | – | – | – | – | – | – |
| FC(F)(F)c1nc(Cl)c2sc(=S)n(-c3ccccc3)c2n1 [Compound 3b, 7-chloro-3-phenyl-5-(trifluoromethyl)[1, 3]thiazolo[4,5-d]pyrimidine-2(3H)-thione] | 54.38% | 99.73% | 25.4 ± 0.5 µM | 1.7 µM | 7.41 µM | −5.45 log M | 3.09 µM | 93.3 µM | −4.95 log M | 20% |
| CCNc1nc(C(F)(F)F)nc2c1sc(=S)n2-c1ccccc1 [Compound 4b, 7-(ethylamino)-3-phenyl-5-(trifluoromethyl)[1, 3]thiazolo[4,5-d]pyrimidine-2(3H)-thione] | 81.60% | 93.44% | 524 ± 22.3 µM | – | – | – | – | – | – | – |
| Fc1ccc(CNc2nc(C(F)(F)F)nc3c2sc(=S)n3-c2ccccc2)cc1 [Compound 4c] | 96.15% | – | 507 ± 22.1 µM | – | – | – | – | – | – | – |
